Data as given in PMC4772728 (Drug development and industrial pharmacy, 2013).
In brackets after ≈: the same amount, converted by molar mass. Several values for one entry are separate records, joined by “and”; a condition that tells them apart may be missing. Equal values may be shown once. Marks after values point to notes of the source that are not given here.

What was measured:
Solubility determination = format: physicochemical; conditions: for solubility: thermodynamic from solid
[1] = Octanol/water partition coefficient determination; format: physicochemical
[2] = Stratum corneum/water partition coefficient determination; format: physicochemical, human
[3] = cited from earlier work
[4] = PBS pH 7.4 with 30% DMSO, 37 °C, pseudo first order
[5] = fresh rat plasma, 37 °C
[6] = pH 7.4
[7] = stratum corneum / 5% propylene glycol in water, 24 hrs

| Compound | solubility (Solubility determination; organic solvent or mixture, Solubility in IPM) | solubility (Solubility determination; pH 2.5, aqueous buffer, Solubility in water) | logP at 24 h ([1]; octanol/0.02 M phosphate buffer pH 2.5, pH 2.5) | Partition coefficient (LogK SC/ 5% PG water) ([2]; water substituted with 0.02 M phosphate buffer at pH 2.5, 24 hrs) | Solubility in 5% PG water (Solubility determination) | Solubility in Hexane (Solubility determination) | Solubility in IPM (Solubility determination) | Solubility in water (Solubility determination) | Decrease of solubility in water relative to unionized DA (Solubility determination; pH 2.5) | Partition coefficient (LogP octanol/water) [1] | Partition coefficient (LogK SC/ 5% PG water) [2, 7] | Hydrolysis in PBS (half life in hours) [4] | Bioconversion in plasma (half life in min) [5] | Aqueous solution flux (steady state, across HEM) [6] | Increase of solubility in purified water relative to unionized DA (Solubility determination; pH 2.5) | octanol/water partition coefficient ([3]; ref Drug Bank website) | LogPO/W [3] |
| --- | --- | --- | --- | --- | --- | --- | --- | --- | --- | --- | --- | --- | --- | --- | --- | --- | --- |
| O=C(O)Cc1ccccc1Nc1c(Cl)cccc1Cl [DA, Diclofenac Acid, reference compound] | 12600 µM (≈ 3730 µg/mL) | 3.4 µM (≈ 1.01 µg/mL) | 4.57 | 2.97^a |  |  |  |  |  |  |  |  |  |  |  | 4.9 |  |
| O=C(c1ccccc1)c1ccc2n1CCC2C(=O)O (stereo not drawn) [ketorolac] |  |  |  |  |  |  |  |  |  |  |  |  |  |  |  |  | around 1 |

Second part, led by results:

| solubility (Solubility determination; organic solvent or mixture, Solubility in IPM) | solubility (Solubility determination; pH 2.5, aqueous buffer, Solubility in water) | logP at 24 h ([1]; octanol/0.02 M phosphate buffer pH 2.5, pH 2.5) | Partition coefficient (LogK SC/ 5% PG water) ([2]; water substituted with 0.02 M phosphate buffer at pH 2.5, 24 hrs) | Solubility in 5% PG water (Solubility determination) | Solubility in Hexane (Solubility determination) | Solubility in IPM (Solubility determination) | Solubility in water (Solubility determination) | Decrease of solubility in water relative to unionized DA (Solubility determination; pH 2.5) | Partition coefficient (LogP octanol/water) [1] | Partition coefficient (LogK SC/ 5% PG water) [2, 7] | Hydrolysis in PBS (half life in hours) [4] | Bioconversion in plasma (half life in min) [5] | Aqueous solution flux (steady state, across HEM) [6] | Increase of solubility in purified water relative to unionized DA (Solubility determination; pH 2.5) | Compound | octanol/water partition coefficient ([3]; ref Drug Bank website) | LogPO/W [3] |
| --- | --- | --- | --- | --- | --- | --- | --- | --- | --- | --- | --- | --- | --- | --- | --- | --- | --- |
|  |  |  |  | 1.9 µM (≈ 0.589 µg/mL) | 21000 µM (≈ 6510 µg/mL) | 43000 µM (≈ 13300 µg/mL) | 1.9 µM (≈ 0.589 µg/mL) | more than 2 folds | 5.00 | 3.56 | 34.6 h |  |  |  | COC(=O)Cc1ccccc1Nc1c(Cl)cccc1Cl [MD, Methanol Diclofenac Ester] |  |  |
|  |  |  |  | 4.8 µM (≈ 1.7 µg/mL) | 2220 µM (≈ 786 µg/mL) | 13600 µM (≈ 4820 µg/mL) | 3.3 µM (≈ 1.17 µg/mL) |  | 4.08 | 2.58 | 63.9 h | 2.4 min and 2.41 min | 0.84(0.25) nmol·cm^−2·hr^−1 |  | O=C(Cc1ccccc1Nc1c(Cl)cccc1Cl)OCCCO [PD, 1,3 Propylene Glycol Diclofenac Ester] |  |  |
|  |  |  |  | 662 µM | 386 µM | 69700 µM | 551 µM |  | 3.30 |  |  |  | 5.54(0.78) nmol·cm^−2·hr^−1 | > 100 fold | Glycerol Diclofenac Ester [GD] |  |  |
